Assay results taken from patent publication US9539256B2 (THE BOARD OF REGENTS OF THE UNIVERSITY OF TEXAS SYSTEM, priority 2012, dated 2017).

What was measured:
[1] = biological target: T1, EPAC2 (Homo sapiens, UniProt Q8WZA2); assay: Rap1 activation assay in HEK293/EPAC2 cells; assay type: cell-based; conditions: HEK293/EPAC2 cells; pre-treatment with 10 μM compound
T1 construct: HEK293 cells that ectopically express full-length EPAC2 proteins; expressed in transfected cells; host or cells: HEK293
Description: FIGS. 9A-9B. Effects of EPAC2-specific antagonists on 007-AM-mediated cellular activation of Rap1. […] GTP-bound Rap1 (Rap1GTP) obtained by a Ral-GDSRBD-GST pull-down assay and total cellular Rap1 were detected by immunoblotting with Rap1-specific antibody. […] At test was used to determine statistical significance (*P<0.05).
Cellular activation of Rap1 was determined by pull-down of lysates derived from human vascular smooth muscle cell and HEK293 cells stably expressing EPAC1 or EPAC2 employing Ral-GDS-RBD-GST affinity beads as described earlier (Mei and Cheng (2005) Molecular Biosystems 1: 325-331).

[2] = system: Plasma leptin; assay: Plasma leptin of wild-type mice after 3 weeks treatment; assay type: in vivo; conditions: 50 mg/kg oral gavage for 3 weeks; relative to vehicle
Description: FIGS. 17A-17B. Pharmacological inhibition of EPAC reduces plasma leptin and enhances leptin signaling in hypothalamus (A) Western blotting of pSTAT3 Y705, total STAT3, SOCS3, SHP2 and α-tubulin in organotypic brain slices at hypothalamus level treated with leptin with or without EPAC specific inhibitor. (B) Plasma leptin levels of 8-week-old wild-type mice treated 3 weeks with vehicle or ESI-09 (50 mg/kg).
To explore the feasibility of increasing leptin sensitivity by targeting Epac1 using small molecules, organotypic brain slice cultures were prepared from 11-day old wild-type C57BL/6 mice. After 7 days ex vivo culture, treatment of the brain tissue with the Epac specific antagonist ESI-09 led to an enhanced pSTAT3 Y705 level both at the basal state and in response to leptin stimulation. […] These pharmacological data are in agreement with results obtained using Epac1 KO mice and further confirm that inhibition of Epac1 enhances leptin signaling in the hypothalamus. To further investigate the therapeutic potential of this small molecule, wild-type mice were with ESI-09 (50 mg/kg) or vehicle (corn oil) by oral gavage for 3 weeks.

[3] = biological target: T2, EPAC1 (Homo sapiens, UniProt O95398); assay: Rap1-GDP exchange (GEF) activity assay, EPAC1
T2 sequence (O95398 1-923): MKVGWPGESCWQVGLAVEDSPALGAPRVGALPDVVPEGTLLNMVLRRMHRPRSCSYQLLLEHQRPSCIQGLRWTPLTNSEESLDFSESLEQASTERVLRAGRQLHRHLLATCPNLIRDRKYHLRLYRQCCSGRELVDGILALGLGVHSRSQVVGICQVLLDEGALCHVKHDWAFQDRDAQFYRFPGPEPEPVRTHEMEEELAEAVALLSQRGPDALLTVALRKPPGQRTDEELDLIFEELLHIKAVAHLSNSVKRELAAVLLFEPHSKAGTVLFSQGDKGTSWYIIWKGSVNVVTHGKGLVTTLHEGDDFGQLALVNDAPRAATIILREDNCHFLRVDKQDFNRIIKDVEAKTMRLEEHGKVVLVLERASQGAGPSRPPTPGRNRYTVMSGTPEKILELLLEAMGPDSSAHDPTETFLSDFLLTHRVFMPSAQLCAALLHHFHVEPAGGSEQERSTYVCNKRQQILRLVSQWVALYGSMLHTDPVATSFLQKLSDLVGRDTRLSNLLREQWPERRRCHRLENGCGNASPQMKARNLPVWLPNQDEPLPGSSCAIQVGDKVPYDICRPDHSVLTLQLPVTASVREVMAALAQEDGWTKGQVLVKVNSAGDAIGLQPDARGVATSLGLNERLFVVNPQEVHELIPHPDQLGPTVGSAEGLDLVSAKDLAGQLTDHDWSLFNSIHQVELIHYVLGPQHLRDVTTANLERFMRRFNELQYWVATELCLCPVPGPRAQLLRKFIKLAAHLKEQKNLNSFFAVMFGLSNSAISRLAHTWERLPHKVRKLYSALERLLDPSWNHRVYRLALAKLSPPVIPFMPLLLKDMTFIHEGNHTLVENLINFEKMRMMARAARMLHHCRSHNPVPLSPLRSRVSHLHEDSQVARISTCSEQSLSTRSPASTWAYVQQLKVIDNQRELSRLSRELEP

[4] = biological target: T3, EPAC2 (Mus musculus, UniProt Q9EQZ6); assay: Rap1-GDP exchange (GEF) activity assay, EPAC2
T3 sequence (Q9EQZ6 1-1011): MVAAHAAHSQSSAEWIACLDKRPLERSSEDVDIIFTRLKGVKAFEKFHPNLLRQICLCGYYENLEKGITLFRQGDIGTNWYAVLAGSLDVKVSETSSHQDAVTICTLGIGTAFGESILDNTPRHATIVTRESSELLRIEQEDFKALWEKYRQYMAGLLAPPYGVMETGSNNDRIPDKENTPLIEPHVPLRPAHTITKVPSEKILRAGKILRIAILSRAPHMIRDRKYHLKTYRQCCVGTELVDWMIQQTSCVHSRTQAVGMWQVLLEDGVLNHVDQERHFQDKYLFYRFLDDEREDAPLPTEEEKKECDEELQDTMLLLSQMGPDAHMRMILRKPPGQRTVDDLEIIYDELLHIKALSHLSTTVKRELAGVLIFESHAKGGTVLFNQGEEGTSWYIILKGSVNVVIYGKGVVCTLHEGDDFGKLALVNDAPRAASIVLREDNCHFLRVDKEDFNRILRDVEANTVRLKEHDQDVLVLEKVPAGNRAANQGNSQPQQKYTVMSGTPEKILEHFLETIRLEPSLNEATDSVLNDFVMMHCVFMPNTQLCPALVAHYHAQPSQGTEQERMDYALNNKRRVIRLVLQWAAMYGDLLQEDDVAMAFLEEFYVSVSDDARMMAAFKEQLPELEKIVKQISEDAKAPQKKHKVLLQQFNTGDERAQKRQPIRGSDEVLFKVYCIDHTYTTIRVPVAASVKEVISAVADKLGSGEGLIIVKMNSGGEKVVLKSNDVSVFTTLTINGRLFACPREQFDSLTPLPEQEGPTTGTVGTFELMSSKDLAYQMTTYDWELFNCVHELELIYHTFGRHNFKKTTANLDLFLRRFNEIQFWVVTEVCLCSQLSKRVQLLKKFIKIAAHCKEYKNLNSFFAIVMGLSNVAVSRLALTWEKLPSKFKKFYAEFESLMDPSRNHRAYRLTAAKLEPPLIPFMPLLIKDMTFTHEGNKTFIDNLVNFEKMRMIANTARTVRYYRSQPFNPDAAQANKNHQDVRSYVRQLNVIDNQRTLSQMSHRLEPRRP
Description: Exchange of Mant-GDP by GDP was measured as a decrease in fluorescence intensity over time using a FluoroMax-3 spectrofluorometer with excitation/emission wavelengths set at 366/450 nm. Typically, decay in the fluorescence intensity was recorded over a time course of 6000 s with data points taken every 60 s.

T1 sequence (Q8WZA2 whole entry, species assumed): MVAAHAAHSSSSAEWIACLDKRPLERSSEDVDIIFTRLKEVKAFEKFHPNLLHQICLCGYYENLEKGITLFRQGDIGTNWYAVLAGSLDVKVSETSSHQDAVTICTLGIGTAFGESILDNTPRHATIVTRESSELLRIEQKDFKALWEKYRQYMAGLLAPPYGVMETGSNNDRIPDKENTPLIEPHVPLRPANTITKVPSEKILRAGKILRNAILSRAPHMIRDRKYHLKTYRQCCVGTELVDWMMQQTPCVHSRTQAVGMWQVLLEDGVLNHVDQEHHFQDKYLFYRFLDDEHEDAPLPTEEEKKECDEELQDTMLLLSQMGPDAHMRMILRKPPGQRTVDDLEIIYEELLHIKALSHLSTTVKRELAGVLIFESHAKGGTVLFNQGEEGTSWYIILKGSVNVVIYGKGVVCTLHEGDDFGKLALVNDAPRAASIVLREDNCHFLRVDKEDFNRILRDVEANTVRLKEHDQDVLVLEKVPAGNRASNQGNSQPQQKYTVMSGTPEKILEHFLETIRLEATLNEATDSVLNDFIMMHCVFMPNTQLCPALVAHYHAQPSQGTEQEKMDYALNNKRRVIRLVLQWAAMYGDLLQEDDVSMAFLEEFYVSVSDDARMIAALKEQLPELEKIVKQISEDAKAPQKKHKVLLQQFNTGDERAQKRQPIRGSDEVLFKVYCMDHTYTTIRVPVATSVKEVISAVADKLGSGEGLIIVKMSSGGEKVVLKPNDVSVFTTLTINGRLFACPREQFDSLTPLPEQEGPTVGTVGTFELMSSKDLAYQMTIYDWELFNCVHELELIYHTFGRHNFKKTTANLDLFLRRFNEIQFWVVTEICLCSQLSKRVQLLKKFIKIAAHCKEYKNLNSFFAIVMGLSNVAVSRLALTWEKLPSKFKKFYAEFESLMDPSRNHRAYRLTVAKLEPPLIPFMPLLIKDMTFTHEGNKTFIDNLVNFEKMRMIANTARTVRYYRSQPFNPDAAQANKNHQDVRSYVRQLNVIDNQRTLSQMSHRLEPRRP

CC(C)(C)c1cc(C(=O)C(C#N)=NNc2cccc(Cl)c2)no1 [ESI-09, 3-(5-Tert-Butyl-Isoxazol-3-Yl)-2-[(3-Chlorophenyl)-Hydrazono]-3-Oxo-Propionitrile]
007-AM induced Rap1 activation [1]: significant reduction | Plasma leptin [2]: significantly reduced | IC50 [3]: 3200 nM | IC50 [4]: 1400 ± 100 nM
